Test results: PubChem BioAssay AID1963843 (Molecular Pharmacology Branch, DTP, NCI, 2024)

System: 616215-338-R-J1-PDC complex spheroid viability
Test: Anticancer human tumor 616215-338-R-J1-PDC patient-derived colon adenocarcinoma cell line growth inhibition [POLQ]
Conditions: for IC50: curve of first compound; for viability, T/C: stronger effect = lower value; active = viability on the fitted dose curve at most 10% of control; inactive = the rest
Outline: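 Three-cell-type spheroids modelling solid tumor plus stroma served as the readout system; POL inhibitors were tested individually and in combination, concentration ranges set by clinical Cmax where known.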

[1] = second compound 0.0316 µM, first compound 0.0316 µM
[2] = second compound 0.0316 µM, first compound 0.1 µM
[3] = second compound 0.0316 µM, first compound 0.316 µM
[4] = second compound 0.0316 µM, first compound 1 µM
[5] = second compound 0.0316 µM, first compound 3.16 µM
[6] = second compound 0.0316 µM, first compound 10 µM
[7] = second compound 0.1 µM, first compound 0.0316 µM
[8] = second compound 0.1 µM, first compound 0.1 µM
[9] = second compound 0.1 µM, first compound 0.316 µM
[10] = second compound 0.1 µM, first compound 1 µM
[11] = second compound 0.1 µM, first compound 3.16 µM
[12] = second compound 0.1 µM, first compound 10 µM
[13] = second compound 0.316 µM, first compound 0.0316 µM
[14] = second compound 0.316 µM, first compound 0.1 µM
[15] = second compound 0.316 µM, first compound 0.316 µM
[16] = second compound 0.316 µM, first compound 1 µM
[17] = second compound 0.316 µM, first compound 3.16 µM
[18] = second compound 0.316 µM, first compound 10 µM
[19] = second compound 1 µM, first compound 0.0316 µM
[20] = second compound 1 µM, first compound 0.1 µM
[21] = second compound 1 µM, first compound 0.316 µM
[22] = second compound 1 µM, first compound 1 µM
[23] = second compound 1 µM, first compound 3.16 µM
[24] = second compound 1 µM, first compound 10 µM
[25] = second compound 3.16 µM, first compound 0.0316 µM
[26] = second compound 3.16 µM, first compound 0.1 µM
[27] = second compound 3.16 µM, first compound 0.316 µM
[28] = second compound 3.16 µM, first compound 1 µM
[29] = second compound 3.16 µM, first compound 3.16 µM
[30] = second compound 3.16 µM, first compound 10 µM
[31] = second compound 10 µM, first compound 0.0316 µM
[32] = second compound 10 µM, first compound 0.1 µM
[33] = second compound 10 µM, first compound 0.316 µM
[34] = second compound 10 µM, first compound 1 µM
[35] = second compound 10 µM, first compound 3.16 µM
[36] = second compound 10 µM, first compound 10 µM
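Also: spheroids exposed to compounds for one week before readout.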
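For viability, T/C in this document: percent viability relative to DMSO vehicle wells taken as 100%.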

COc1cc(C2c3cc4c(cc3C(OC3OC5COC(C)OC5C(O)C3O)C3COC(=O)C23)OCO4)cc(OC)c1O (stereo unspecified) + Nc1ccc(C#CCN(C(=O)Cc2ncc(C(F)(F)F)cc2C(F)(F)F)c2ccc(F)cc2)nn1
812 nM: IC50 (second compound 0.1 µM)
314 nM: IC50 (second compound 3.16 µM)
327 nM: IC50 (second compound 0.0316 µM)
732 nM: IC50 (second compound 0.316 µM)
489 nM: IC50 (second compound 1 µM)
inactive: viability, T/C [1] 106% | viability, T/C [2] 83.9% | viability, T/C [3] 46.2% | viability, T/C [4] 45.8% | viability, T/C [5] 41.9% | viability, T/C [6] 24.9% | viability, T/C [7] 107% | viability, T/C [8] 92.4% | viability, T/C [9] 57.6% | viability, T/C [10] 51.3% | viability, T/C [11] 36.4% | viability, T/C [12] 27.7% | viability, T/C [13] 108% | viability, T/C [14] 87.8% | viability, T/C [15] 65.4% | viability, T/C [16] 42.3% | viability, T/C [17] 35.9% | viability, T/C [18] 26.4% | viability, T/C [19] 98.4% | viability, T/C [20] 86.3% | viability, T/C [21] 56.5% | viability, T/C [22] 37% | viability, T/C [23] 36% | viability, T/C [24] 24.8% | viability, T/C [25] 94.7% | viability, T/C [26] 67.5% | viability, T/C [27] 48.6% | viability, T/C [28] 37.9% | viability, T/C [29] 38.3% | viability, T/C [30] 24.4% | viability, T/C [31] 83.4% | viability, T/C [32] 64% | viability, T/C [33] 49.8% | viability, T/C [34] 34.3% | viability, T/C [35] 32.3% | viability, T/C [36] 30.9%
268 nM: IC50 (second compound 10 µM)

CNCc1ccc(-c2[nH]c3cc(F)cc4c3c2CCNC4=O)cc1 + COC1C(OC(N)=O)C(O)C(Oc2ccc3c(O)c(NC(=O)c4ccc(O)c(CC=C(C)C)c4)c(=O)oc3c2C)OC1(C)C
inactive: viability, T/C [1] 98.7% | viability, T/C [2] 99.8% | viability, T/C [3] 106% | viability, T/C [4] 111% | viability, T/C [5] 107% | viability, T/C [6] 93.3% | viability, T/C [7] 102% | viability, T/C [8] 102% | viability, T/C [9] 98.7% | viability, T/C [10] 99.5% | viability, T/C [11] 101% | viability, T/C [12] 83.9% | viability, T/C [13] 107% | viability, T/C [14] 113% | viability, T/C [15] 115% | viability, T/C [16] 105% | viability, T/C [17] 105% | viability, T/C [18] 83.2% | viability, T/C [19] 105% | viability, T/C [20] 106% | viability, T/C [21] 101% | viability, T/C [22] 102% | viability, T/C [23] 109% | viability, T/C [24] 76.2% | viability, T/C [25] 106% | viability, T/C [26] 101% | viability, T/C [27] 106% | viability, T/C [28] 109% | viability, T/C [29] 117% | viability, T/C [30] 58.9% | viability, T/C [31] 109% | viability, T/C [32] 101% | viability, T/C [33] 97.6% | viability, T/C [34] 104% | viability, T/C [35] 105% | viability, T/C [36] 55%
> 10000 nM: IC50 (second compound 0.0316 µM) | IC50 (second compound 0.1 µM) | IC50 (second compound 0.316 µM) | IC50 (second compound 1 µM) | IC50 (second compound 3.16 µM) | IC50 (second compound 10 µM)

O=c1[nH]cc(F)c(=O)[nH]1 + Nc1ccc(C#CCN(C(=O)Cc2ncc(C(F)(F)F)cc2C(F)(F)F)c2ccc(F)cc2)nn1
529 nM: IC50 (second compound 0.316 µM) | IC50 (second compound 1 µM)
inactive: viability, T/C [1] 101% | viability, T/C [2] 82.2% | viability, T/C [3] 56.6% | viability, T/C [4] 38.9% | viability, T/C [5] 35.9% | viability, T/C [6] 37.5% | viability, T/C [7] 93.3% | viability, T/C [8] 92.2% | viability, T/C [9] 53.7% | viability, T/C [10] 43.5% | viability, T/C [11] 44.9% | viability, T/C [12] 45.6% | viability, T/C [13] 103% | viability, T/C [14] 77.6% | viability, T/C [15] 60.6% | viability, T/C [16] 35.6% | viability, T/C [17] 42% | viability, T/C [18] 39.7% | viability, T/C [19] 97.5% | viability, T/C [20] 89.7% | viability, T/C [21] 57.5% | viability, T/C [22] 40.7% | viability, T/C [23] 38.4% | viability, T/C [24] 39.7% | viability, T/C [25] 95.1% | viability, T/C [26] 90.5% | viability, T/C [27] 44.8% | viability, T/C [28] 41.6% | viability, T/C [29] 36.4% | viability, T/C [30] 37.5% | viability, T/C [31] 91.1% | viability, T/C [32] 75.7% | viability, T/C [33] 55.5% | viability, T/C [34] 38.2% | viability, T/C [35] 35.7% | viability, T/C [36] 37.6%
437 nM: IC50 (second compound 10 µM)
479 nM: IC50 (second compound 0.0316 µM)
278 nM: IC50 (second compound 3.16 µM)
509 nM: IC50 (second compound 0.1 µM)
